Data: US20240208950A1, “COMPOSITIONS AND METHODS FOR TREATMENT OF CERVICAL AND OVARIAN CANCER” (SOUTH DAKOTA BOARD OF REGENTS, priority 2021, published 2024)

Tests used:
Type in all cases: cell-based, human
β-catenin in CaSki cells = test: β-catenin degradation with cyclohexamide (western blot, pulse chase), CaSki; settings: ORM-Br
Procedure: A western blot analysis was conducted to determine the effect of ORM-Br on β-catenin degradation. […] Protein lysates were prepared and subjected to western blot analysis to ascertain the levels of protein of β-catenin in cyclohexamide-treated cells (FIG. 3A) and in ORM-Br and cyclohexamide-treated cells (FIG. 3B).

[1] = test system: EMT markers and MMPs in CaSki cells; test: Western blot for EMT markers and MMPs, CaSki; settings: 24 hours
Procedure: In a further example, cell lysates and western blot analysis was conducted for EMT markers and MMPs. […] In this example, about 70% of confluent SiHa and CaSki were treated with ORM-Br ([…]) for 24 hours. Cell lysates were prepared, and western blot analysis were conducted for EMT markers and MMPs analysis. The effect of ORM-Br on protein levels of cell-cycle regulatory proteins (cyclin E1 and p27) in both CaSki and SiHa cell lines are shown.
The effect of Br-ORM on protein expression in cervical cancer cells were determined by Western blot analysis by using specific antibodies.
(§1) Epithelial mesenchymal transition (EMT) is the basic characteristic of cancer cells in which epithelial cells undergo morphologic and molecular changes that transform the cells to mesenchymal, highly metastatic (invasive and motile), and drug-resistant phenotypes. Thus, targeting EMT may reduce the invasive phenotypes of a cancer cell and have significant advantage to overcome drug resistance. It has been reported that β-catenin is involved in invasion and metastasis via inducing EMT in various tumor cells. The effect of Br-ORM treatment on various EMT markers in cervical cancer cells was evaluated. […] The effect of Br-ORM on expression of EMT markers in cervical cancer cells compared to untreated group by use of qPCR analysis was determined. […] Expression of E-cadherin in cervical cancer cells treated with Br-ORM (10 μM) for 18 hours was also determined by immunofluorescence and confocal microscopy. Images were captured under 60× magnification and representative images are presented (FIG. 14G).
FIG. 14. Br-ORM decreases migration, invasion and attenuates EMT in cervical cancer cells. Effect of Br-ORM on cell migration of cervical cancer cells as determined by agarose bead (FIG. 14A), scratch wound healing (FIG. 14B), and Boyden chamber assay (FIG. 14C). AB denotes agarose bead while MC denotes migratory cells. Arrows indicate the distance of cervical cancer (CaSki and SiHa) cells migration in control and Br-ORM treated groups (FIG. 14A(i)-(ii)). […] Closure of wound was determined and photographed using phase contrast microscopy. […] Bar graph represent the quantification of migrated CaSki cells of control and Br-ORM treated groups (FIG. 14C(ii)). […] Effect of Br-ORM treatment on invasion of CaSki cells as determined by a commercially available kit (BD Biosciences) as described in materials and methods. In brief, 24 hours post-treatment of Br-ORM, invaded cells were fixed, stained and counted. […] Bar graph represent the quantification of invaded CaSki cells of control and Br-ORM treated groups (FIG. 14D(ii)). […] Effect of Br-ORM on E-cadherin expression in cervical cancer cells as determined by confocal microscopy in control and Br-ORM treated cells after 18 hours.

[2] = test system: E-cadherin and N-cadherin mRNA in cervical cancer cells; test: qPCR of E-cadherin and N-cadherin; settings: both cervical cancer cells, 18 hours
Procedure: RNA from cervical cancer cells was isolated using Qiagen kit and quantified using NanoDrop instrument 2000 (Thermo Scientific, Waltham, MA, USA). To analyze the expression of miR-200a in control and Br-ORM treated cells, 100 ng total RNA was reverse transcribed into cDNA using specific primers designed for miRNA analysis (Applied Biosystems, Foster City, CA, USA). The expression of this miRNAs was determined by qRT-PCR using the Taqman PCR master mixture and specific primers designed for detection of mature miRNAs (Applied Biosystems). The expression of miRNA was normalized with the expression of endogenous control, RNU6B.
as §1, with “Thus, targeting EMT may reduce the invasive phenotypes of a cancer cell and have significant advantage to overcome drug resistance. It has been reported that β-catenin is involved in invasion and metastasis via inducing EMT in various tumor cells.” left out, “Images were captured under 60× magnification and representative images are presented (FIG. 14G).” left out
FIG. 14. […] Closure of wound was determined and photographed using phase contrast microscopy. […]

CaSki cells = test: Cell migration (agarose bead, scratch wound, Boyden chamber), CaSki; settings: 0 and 48 hours
Procedure: FIGS. 7B and 7D show the effect of ORM-Br on motility potential of CaSki cells (FIG. 7B) and SiHa cells (FIG. 7D) as predicted by agarose bead assay. The images shown in FIGS. 7A-7D represent the migratory cells (MC) in control and ORM-Br treated groups at 0 and 48 hours. In FIGS. 7B and 7D, AB means agarose beads. In FIGS. 7A-7D the images magnification were at 4.
Cell motility was performed by in vitro scratch wound assay. Briefly, cells were seeded in a 12-wells plate and after 80-90% confluency a standardized wound was made using a 200 μL micropipette tip. Cells were then treated with Br-ORM (10 μM) and photographed by phase contrast microscopy. […]
FIG. 14. […] Effect of Br-ORM on cell migration of cervical cancer cells as determined by agarose bead (FIG. 14A), scratch wound healing (FIG. 14B), and Boyden chamber assay (FIG. 14C). […] Closure of wound was determined and photographed using phase contrast microscopy. […] Bar graph represent the quantification of migrated CaSki cells of control and Br-ORM treated groups (FIG. 14C(ii)). […] Effect of Br-ORM treatment on invasion of CaSki cells as determined by a commercially available kit (BD Biosciences) as described in materials and methods. In brief, 24 hours post-treatment of Br-ORM, invaded cells were fixed, stained and counted. […] Bar graph represent the quantification of invaded CaSki cells of control and Br-ORM treated groups (FIG. 14D(ii)). […]

## COc1ccc2c(c1)OC(C)(C)C(c1ccc(Br)cc1)C2c1ccc(OCCN2CCCC2)cc1 (stereo not drawn) [ORM-Br]
β-catenin in CaSki cells
  protein levels of β-catenin relative to cyclohexamide treatment: significant decrease in protein levels of β-catenin
[1]
  EMT associated markers (N-cadherin, vimentin and snail) expression: inhibits the EMT associated markers
  expression of E-cadherin: induced the expression of E-cadherin
  expression of MMP2 and MMP9: inhibited the expression of MMP2 and MMP9
[1]; listed as Br-ORM
  EMT associated markers (N-cadherin, vimentin and snail) expression: marked inhibition
[2]
  mRNA level of E-cadherin: significantly elevated
  mRNA level of N-cadherin: significantly reduced
CaSki cells
  cell migration / motility: inhibits the migration
CaSki cells; listed as Br-ORM
  cell migration / motility: dose dependent inhibition of migration abilities
